Reference: article PMC12587390, “Metabolite Identification Data in Drug Discovery, Part 1: Data Generation and Trend Analysis” (Molecular Pharmaceutics, 2025)
Converted amounts (≈) assume the structure as drawn.

How the values were obtained:
human hepatocytes [1] = assay: Metabolite identification in human hepatocyte incubations; assay type: in vitro ADME; conditions: 4 μM
Experimental: Cryopreserved, pooled primary human, dog, and rat hepatocytes were obtained from BioIVT (previously Celsis IVT). L-15 Leibovitz buffer was placed in a water bath to reach 37 °C. Cryopreserved hepatocytes were transferred from a −150 °C freezer on dry ice and immediately immersed in a preheated water bath kept at 37 °C for thawing. When only a small ice crystal could be seen, the content was emptied into a 50 mL falcon tube filled with warm buffer (maximum four vials/falcon tube). The suspension was centrifuged at room temperature for 3 min at 50 g. The supernatant was removed, the pellet was resuspended in a small volume of buffer, and the falcon tube was refilled with buffer, followed by another centrifugation to wash away any remaining storage buffer. Thereafter, the supernatant was removed, and the pellet was dissolved in a small volume of buffer and diluted to a concentration of about 3–5 million cells/mL. After counting the cells using a Casy cell counter, the suspension was diluted to 1 million viable cells/mL and kept at room temperature until use. The viability cutoff was 80%.
An aliquot of 245 μL of hepatocyte suspension was added to a round-bottomed 96-deep-well plate using a manual multipipette. The deep-well plate was preincubated for 15 min at 37 °C and 13 Hz. Substrate solutions of the assay compounds were prepared by the robot in a 96-well plate as follows: 4 μL of 10 mM DMSO stock solution, followed by the addition of 96 μL of ACN:water (1:1, v:v) and mixing by shaking. 50 μL from each well were transferred to and combined in a new plate, resulting in 100 μL per well and a dilution of 1:1.
The reaction was started by the addition of 5 μL of 200 μM substrate solution to the preheated hepatocyte suspension, resulting in a final substrate concentration of 4 μM (0.04% DMSO, <0.5% ACN). The incubation was continued at 37 °C and 13 Hz. At each time point (0, 40, and 120 min), a 50 μL sample was taken out and quenched in 200 μL of cold ACN:methanol (1:1, v:v), and the stopped plates were centrifuged for 20 min (set at 4 °C and 4000 g). The supernatant was diluted by taking 50 μL and mixing it with 100 μL of water. Incubations of the positive controls, albendazole and dextromethorphan, were performed in parallel as described above.
Structural characterization of metabolites and metabolite profiling were performed using the Waters Acquity ultraperformance liquid chromatography (UPLC) system fitted to a Waters High-Resolution Mass Spectrometer (MS) (Xevo G2-S, Synapt G2-Si, or a Synapt XS MS). The Waters MS systems, equipped with an electrospray ionization (ESI) source, were operated in positive-ion sensitivity mode over a mass range m/z 50–1200 and in negative-ion sensitivity mode over a mass range m/z of 50–1200.
The reversed-phase gradient elution was performed on an Acquity U(H)-PLC BEH C18 column (2.1 × 100 mm, 1.7 μm, Waters) set at 45 °C. The mobile phases consisted of 0.1% FA in water (A) and ACN (B). […] The injection volume was 2 μL. The MS settings were optimized for the respective MS instrument. […] A scan time of 0.1 s was used, and data were acquired in centroid mode. Collision energy was set to “off” for the low-energy function, whereas in the high-energy MSe functions, the collision energies were typically ramped from 15 to 35 V in the trap cell, with constant collision energies of 20 V in their transfer cells. Cone voltage was set to 25 V for both low- and high-energy functions. For dedicated MS/MS, the m/z of the molecular ion was selected in the quadrupole, and the mass range for fragmentation analysis was typically set between 50 and 1200. The collision energies were either the same as those stated above for MSe data generation or optimized for a specific metabolite.

physchem [2] = conditions: 25 °C, pH 7.4, aqueous buffer, thermodynamic from solid
Experimental: (§1) Solubility was measured as the thermodynamic solubility using a shake-flask approach. Here, DMSO was evaporated from the compound stock solution as the first step. The “dried” compounds were then placed into 10 mM sodium phosphate buffer, adjusted to pH 7.4, and equilibrated at 25 °C for 24 h. The samples were centrifuged, and the solution was analyzed by LC-MS/MS to determine the amount of compound in solution.

human hepatocytes [3] = assay: Metabolic stability in human hepatocytes (HH CLint); assay type: in vitro ADME; conditions: 37 °C, 2 h
Experimental: Metabolic stability in human hepatocytes (HH CLint) was measured by incubating the cells with the test compound at 37 °C for 2 h. An aliquot of the mixture was taken at typically nine defined time points, and the metabolic reaction was stopped by adding ACN. The samples were centrifuged, and the supernatant was analyzed via LC-MS/MS. Intrinsic clearance (CLint) was calculated from the disappearance rate of the parent compound. ,

physchem [4] = conditions: pH 7.4
Experimental: (§2) LogD was measured using the traditional shake-flask method, with up to ten compounds pooled together. The compounds were dissolved in 10 mM sodium phosphate buffer adjusted to pH 7.4 and an octanol phase (both phases were mixed for 2 h at room temperature). The concentrations in both phases were analyzed by liquid chromatography and quantitative tandem mass spectrometry (LC-MS/MS), and distribution coefficients were determined.

[5] = Thermodynamic solubility, shake-flask; conditions: 10 mM sodium phosphate buffer, 25 °C, pH 7.4, aqueous buffer, thermodynamic from solid
Experimental: as §1

[6] = LogD, shake-flask method (octanol / buffer pH 7.4); conditions: octanol/10 mM sodium phosphate buffer
Experimental: as §2

solubility at 24 h [5] [µM]	logD at 2 h [6]	Compound	Metabolites / metabolic pathways identified (human hepatocytes [1])	solubility (physchem [2]) [µM]	HH CLint (human hepatocytes [3]) [μL/min/1E6]	logD (physchem [4])
–	–	COc1cc(NC(=O)C2CCCCC2C(=O)c2ccc(-c3cc[nH]n3)cc2)ncn1 (stereo not shown) [Cmpd 17, COc1cc(NC(=O)[C@@H]2CCCC[C@H]2C(=O)c2ccc(-c3cc[nH]n3)cc2)ncn1]	ketone reduction, aliphatic hydroxylations, N-glucuronidation, amide hydrolysis, and combinations thereof	22 (≈ 8.92 µg/mL)	22	3.9
564 (≈ 237 µg/mL)	2	Cn1ncc(NC(=O)C2CCCCC2C(=O)c2ccc(-c3cc[nH]n3)cc2)c1C(N)=O (stereo not shown) [Cmpd 18, Cn1ncc(NC(=O)[C@@H]2CCCC[C@H]2C(=O)c2ccc(-c3cc[nH]n3)cc2)c1C(N)=O]	the only metabolite identified was the alcohol formed after the reduction of a ketone	–	4	–
–	–	Cn1ncc(NC(=O)C2CCCCC2C(=O)c2ccc(-c3cc[nH]n3)cc2)c1C(F)(F)F (stereo not shown) [Cmpd 25, Cn1ncc(NC(=O)[C@@H]2CCCC[C@H]2C(=O)c2ccc(-c3cc[nH]n3)cc2)c1C(F)(F)F]	amide hydrolysis was not detected	80 (≈ 35.6 µg/mL)	7	3.6
99 (≈ 42.3 µg/mL)	3	Cn1cc(NC(=O)C2CCCCC2C(=O)c2ccc(-c3cc[nH]n3)cc2)c(C(F)F)n1 (stereo not shown) [Cmpd 27, Cn1cc(NC(=O)[C@@H]2CCCC[C@H]2C(=O)c2ccc(-c3cc[nH]n3)cc2)c(C(F)F)n1]	amide hydrolysis was not detected	–	9	–
